The text below walks through data of ChEMBL document CHEMBL1129176, “Enantio-dependence of inducer-specific bidirectional regulation of tumor necrosis factor (TNF)-alpha production: Potent TNF- production inhibitors” (1996).

Assay type in all cases: functional, Homo sapiens
For assay [1], the system named is HL-60. Put plainly: Compound was evaluated for the amount of TNF-alpha produced by HL-60 cells in the presence of 12-O-tetradecanoylphorbol-13-acetate (TPA) at concentration 0.3 uM.
Assay [2] has as its system HL-60. Put plainly: Compound was evaluated for the amount of TNF-alpha produced by HL-60 cells in the presence of Okadaic acid (OA) at concentration 0.3 uM.
Assay [3] has as its system HL-60. Briefly: Compound was evaluated for the amount of TNF-alpha produced by HL-60 cells in the presence of 12-O-tetradecanoylphorbol-13-acetate (TPA) at concentration 30 uM.
For assay [4], the system named is HL-60. Put plainly: Compound was evaluated for the amount of TNF-alpha produced by HL-60 cells in the presence of Okadaic acid (OA) at concentration 30 uM.

Turning to `C[C@H](C1CCCCC1)N1C(=O)c2c(F)c(F)c(F)c(F)c2C1=O`, the Production in assay [1] came out at 98%; in assay [2], 10%.
Consider `O=C1CCC(N2C(=O)c3ccccc3C2=O)C(=O)N1` (stereo not drawn) [THALIDOMIDE], for which the Production in assay [3] was 135%; in assay [4], 58%.
For the compound `C[C@@H](c1cccc2ccccc12)N1C(=O)c2c(F)c(F)c(F)c(F)c2C1=O`, the Production in assay [1] and in assay [2] was 101% each time.
As for `C[C@H](c1ccccc1)N1C(=O)c2c(F)c(F)c(F)c(F)c2C1=O`, the Production in assay [1] is 97%; in assay [2], 2%.
Taken in the same sequence, the figures for `C[C@H](c1cccc2ccccc12)N1C(=O)c2c(F)c(F)c(F)c(F)c2C1=O` were 100% and 2%.
For `C[C@@]1(N2C(=O)c3ccccc3C2=O)CCC(=O)NC1=O`, the Production in assay [3] amounted to 103%; in assay [4], 39%.
As to `C[C@]1(N2C(=O)c3ccccc3C2=O)CCC(=O)NC1=O`, the Production in assay [3] stood at 358%; in assay [4] it was 75%.
Regarding `C[C@@H](C1CCCCC1)N1C(=O)c2c(F)c(F)c(F)c(F)c2C1=O`, the Production was 124% in assay [1] and 65% in assay [2].
For `C[C@@H](c1ccccc1)N1C(=O)c2c(F)c(F)c(F)c(F)c2C1=O`, in that order: 143% and 70%.
